According to US7794761B2, “Methods for inducing anti-anxiety and calming effects in animals and humans” (Seroctin Research & Technology, Inc., priority 2000, dated 2010):

Tested on: montane vole, Microtus montanus
Assay: Uterine weight response in female montane voles after intraperitoneal injection
Type: in vivo
Conditions: i.p. 5 mcg/day for three days; for Average Uterine Weight: sacrificed 24 hours after last injection, control 15.2 ± 2.4
Experimental: Female montane voles, Microtis montanus, received intra peritoneal injections of representative compounds belonging to Formulas I, II and III for three consecutive days and sacrificed twenty-four (24) hours after the last injection to examine uterine weight response. To assess the properties of each representative compound, pure ones made by chemical means (University of Utah Department of Chemistry, Salt Lake City, Utah) were prepared specifically for this test. All compounds were injected at a dose level of 5 mcg/day, dissolved in five percent (5%) propylene glycol for a total injection volume of 0.5 ml. Control animals received 0.5 ml of five percent (5%) propylene glycol only. All voles were 4-5 weeks old and weighed 25-29 g.

Row | Structure (SMILES) | increase in uterine weight over control group [%] | Average Uterine Weight [mg]
1 | COc1ccc2[nH]c(=O)oc2c1 [6-methoxy-2-benzoxazolinone] | 82 | 27.7 ± 5.6
2 | COc1ccc(O)c(N)c1 [2-amino-4-methoxyphenol] | – | 22.2 ± 3.2
3 | COc1ccc(N)c(O)c1 [2-amino-5-methoxyphenol] | – | 21.8 ± 3.5
4 | COc1ccc(O)c(NC(C)=O)c1 [2-hydroxy-5-methoxyacetanilide] | – | 21.1 ± 4.4
5 | COc1ccc(NC(C)=O)c(O)c1 [2-hydroxy-4-methoxyacetanilide] | – | 23.1 ± 2.7
6 | COc1ccc2oc(=O)[nH]c2c1 [5-methoxy-2-benzoxazolinone] | 32 | 20.0 ± 4.7
7 | CCOc1ccc(NC(C)=O)c(O)c1 [2-hydroxy-4-ethoxyacetanilide] | – | 22.2 ± 3.9
